Reference: patent US10899795B2, “Modified epitopes for boosting CD4+ T-cell responses” (Katholieke Universiteit Leuven, priority 2012, dated 2021)

Test system: hemagglutinin-loaded dendritic cells
Type: cell-based, C57BL/6 mice

Substance: CLAI YSTVASSLV LLV [SEQ ID NO:9]
- lysis of hemagglutinin-loaded dendritic cells (51Cr release): significant lysis
